Patent US6699719B2, “Biosensor arrays and methods” (Proteomic Systems, Inc., priority 1996, dated 2004)

What was measured:
[1] = molecular target: T1, CXCR3 (Homo sapiens, UniProt P49682); assay: Multiplexed MembraneChip GPCR assay; assay type: binding; settings: CXCR3 corral; 5 mM propranolol or 15 mM scopolamine
T1 construct: purchased Stratagene (La Jolla, Calif.)
T1 sequence (P49682 1-368): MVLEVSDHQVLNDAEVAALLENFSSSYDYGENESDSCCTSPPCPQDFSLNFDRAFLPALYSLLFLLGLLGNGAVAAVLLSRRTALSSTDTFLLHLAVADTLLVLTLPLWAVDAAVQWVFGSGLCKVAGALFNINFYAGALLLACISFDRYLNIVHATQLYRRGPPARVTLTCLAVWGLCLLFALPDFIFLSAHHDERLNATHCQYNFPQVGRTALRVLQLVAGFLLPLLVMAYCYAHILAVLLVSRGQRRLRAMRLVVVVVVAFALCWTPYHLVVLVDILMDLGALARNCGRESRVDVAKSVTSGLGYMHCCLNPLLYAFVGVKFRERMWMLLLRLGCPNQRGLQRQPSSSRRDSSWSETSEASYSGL

[2] = MembraneChip lipid only control corral probed with fluorescent ligand; assay type: binding; settings: for difference in BODIPY TMR CGP12177 fluorescence when competitor added: lipid only (negative) corral, 5 mM propranolol or 15 mM scopolamine
[3] = molecular target: T2, CXCR1 (Homo sapiens, UniProt P25024); assay: Multiplexed MembraneChip GPCR assay; assay type: binding; settings: CXCR1 corral; 5 mM propranolol or 15 mM scopolamine
T2 construct: purchased Stratagene (La Jolla, Calif.)
T2 sequence (P25024 1-350): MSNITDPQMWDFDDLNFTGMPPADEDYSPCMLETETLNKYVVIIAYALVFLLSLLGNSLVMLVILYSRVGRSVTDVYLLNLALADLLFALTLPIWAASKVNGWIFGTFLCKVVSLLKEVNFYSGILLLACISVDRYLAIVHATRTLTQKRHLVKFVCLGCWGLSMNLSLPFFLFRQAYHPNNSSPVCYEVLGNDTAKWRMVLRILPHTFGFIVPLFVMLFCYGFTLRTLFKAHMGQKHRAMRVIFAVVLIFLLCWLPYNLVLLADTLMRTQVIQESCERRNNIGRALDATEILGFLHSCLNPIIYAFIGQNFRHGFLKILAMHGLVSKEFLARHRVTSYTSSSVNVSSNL

[4] = molecular target: CXCR4 (Homo sapiens, UniProt P61073); assay: Multiplexed MembraneChip GPCR assay; assay type: binding; settings: CXCR4 corral; 5 mM propranolol or 15 mM scopolamine
[5] = molecular target: T3, AR-β1 (Homo sapiens, UniProt P08588); assay: Multiplexed MembraneChip GPCR assay; assay type: binding; settings: 15 mM scopolamine
T3 construct: purchased Packard BioScience (Meriden, CT) 6110106

[6] = molecular target: CXCR4 (CXC chemokine Receptor 4) (Homo sapiens, UniProt P61073); assay: MembraneChip specificity of fluorescent ligand binding against another GPCR; settings: CXCR4 chip probed with 15 μM BODIPY 558/568 Pirenzepine
CXCR4 (CXC chemokine Receptor 4), sequence (P61073 whole entry, species assumed): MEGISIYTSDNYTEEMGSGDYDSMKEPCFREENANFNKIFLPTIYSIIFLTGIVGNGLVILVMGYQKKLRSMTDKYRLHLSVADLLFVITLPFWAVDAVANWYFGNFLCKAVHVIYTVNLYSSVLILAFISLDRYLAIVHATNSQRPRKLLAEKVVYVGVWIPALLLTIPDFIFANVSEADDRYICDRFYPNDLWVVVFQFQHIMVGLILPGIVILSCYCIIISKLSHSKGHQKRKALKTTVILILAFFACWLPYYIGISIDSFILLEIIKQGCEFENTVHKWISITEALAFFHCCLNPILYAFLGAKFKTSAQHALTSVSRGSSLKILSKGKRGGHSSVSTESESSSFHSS

CXCR4, sequence (P61073 whole entry, species assumed): as above
T3 sequence (P08588 whole entry): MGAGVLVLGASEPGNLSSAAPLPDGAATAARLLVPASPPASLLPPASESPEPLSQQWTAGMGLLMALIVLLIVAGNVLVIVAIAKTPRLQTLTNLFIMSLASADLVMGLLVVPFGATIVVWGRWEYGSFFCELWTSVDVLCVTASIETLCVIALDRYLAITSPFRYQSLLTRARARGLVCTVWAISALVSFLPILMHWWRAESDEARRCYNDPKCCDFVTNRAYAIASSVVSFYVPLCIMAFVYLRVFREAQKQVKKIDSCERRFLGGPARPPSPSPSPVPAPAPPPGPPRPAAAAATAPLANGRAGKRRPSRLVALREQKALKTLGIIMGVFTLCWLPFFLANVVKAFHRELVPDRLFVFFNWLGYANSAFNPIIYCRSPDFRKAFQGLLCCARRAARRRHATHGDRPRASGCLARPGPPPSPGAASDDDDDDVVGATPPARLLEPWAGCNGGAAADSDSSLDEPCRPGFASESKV

Row | SMILES | difference in BODIPY TMR CGP12177 fluorescence when competitor added [1] | difference in BODIPY TMR CGP12177 fluorescence when competitor added [2] | difference in BODIPY TMR CGP12177 fluorescence when competitor added [3] | difference in BODIPY TMR CGP12177 fluorescence when competitor added [4] | change in fluorescence of BODIPY TMR CGP12177 at AR-β1 [5] | Relative Fluorescence Units (RFU) ± standard deviation, Negative ([2]; lipid only corral probed with 15 μM BODIPY 558/568 Pirenzepine) | Relative Fluorescence Units (RFU) ± standard deviation, CXCR4 [6]
1 | CN1[C@@H]2C[C@@H](OC(=O)[C@H](CO)c3ccccc3)C[C@H]1[C@@H]1O[C@@H]12 [scopolamine] | only negligible differences | only negligible differences | only negligible differences | only negligible differences | Little decrease in fluorescence |  | 
2 | O=C(CCc1ccc(/C=C2\C=CC(c3cccs3)=N2)n1B(F)F)NCCCCCCN1CCN(CC(=O)N2c3ccccc3C(=O)Nc3cccnc32)CC1 [BODIPY 558/568 Pirenzepine] |  |  |  |  |  | 2,637 ± 1,846 RFU | 8,788 ± 3,137 RFU
3 | CC(C)NCC(O)COc1cccc2ccccc12 (stereo not shown) [propranolol] | only negligible differences | only negligible differences | only negligible differences |  |  |  | 
